Key:
SARM1 = target: T1, SARM1 (Homo sapiens, UniProt Q6SZW1); test: In vitro enzyme inhibition activity (SAM-TIR lysate, NAD/ADPR by HPLC-MS/MS); assay type: biochemical; conditions: SAM-TIR lysate (SARM1 408-724) from NRK1-HEK293T cells; 25°C, 3 h with NAD
T1 construct: 408-724 expression plasmid and vector-control customized by SinoBio; host or cells: NRK1-HEK293T cells, transient transfection; crude clarified lysate used as the enzyme
T1 sequence (Q6SZW1 408-724 limits assumed): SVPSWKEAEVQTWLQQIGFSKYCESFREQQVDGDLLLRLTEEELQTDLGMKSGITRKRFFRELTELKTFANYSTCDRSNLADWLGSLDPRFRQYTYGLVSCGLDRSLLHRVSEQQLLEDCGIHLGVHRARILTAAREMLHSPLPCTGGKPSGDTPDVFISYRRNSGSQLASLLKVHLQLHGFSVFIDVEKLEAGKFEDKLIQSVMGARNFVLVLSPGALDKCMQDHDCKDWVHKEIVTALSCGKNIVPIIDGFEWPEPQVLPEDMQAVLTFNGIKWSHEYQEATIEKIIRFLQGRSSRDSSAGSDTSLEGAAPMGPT
Method: NRK1-HEK293T cells were seeded at approximately 10 × 10^6 cells/plate into 150 mm culture dishes containing 25 mL of growth medium. […] At the time of transfection, 250 µL of nicotinamide riboside (100 mM) was added to each dish to minimize toxicity from SAM-TIR overexpression. 48 hours after the transfection, the cells were washed three to four times with cold PBS and collected. The cells were resuspended in 0.5 mL of PBS containing protease inhibitors. Cell lysates were prepared by sonication. The lysate was centrifuged at 12500 rpm for 10 min at 4°C to remove cell debris, and protein concentration was determined by bicinchoninic acid (BCA) assay and used to normalize lysate concentration. The aliquots of supernatant were stored at -80°C until use.
• 1) Transfer the compound dilutions into an assay plate by Echo 650; • 2) Add 10µl 2× SAM-TIR lysate to each well; • 3) Seal the assay plate, centrifuge at 1000rpm for 1min, and incubate at 25°C for 30min; • 4) Add 10µl 2× NAD to each well; • 5) Centrifuge at 1000rpm for 1min, and incubate at 25°C for 3h; • 6) Add 40µL trichloroacetic acid to each well to terminate the reaction, mix and shake for 30s, and centrifuge at 4000rpm for 10min; • 7) Take 40µL supernatant from each well and add appropriate amount of ammonia water to adjust the pH; • 8) Detect nicotinamide adenine dinucleotide (NAD) and adenosine diphosphate ribose (ADPR) by HPLC-MS/MS.

[1] = Liver microsomal stability in vitro; assay type: in vitro ADME; conditions: liver microsomes, NADPH, 37 °C, 0-45 min
Method: 100 mM K-Mg-buffer containing 5 mM MgCl2 was preheated. The spiking solution was prepared by adding 5 µL of 10 mM compound and reference stock solution to 95 µL of acetonitrile (ACN). 1.5 µL of 500 µM spiking solution and 18.75 µL of 20 mg/mL liver microsomes were added to 479.8 µL of K-Mg-buffer. NADPH stock solution (3 mM) was prepared by dissolving NADPH in K-Mg-buffer. 30 µL of 1.5 µM spiking solution containing microsomes was evenly dropped into the assay plate at different time points (0, 5, 15, 30, and 45 min), and pre-incubated at 37 °C for 5 min. At 0 min, 200 µL of ACN containing IS (internal standard, tolbutamid/terfenadine) was added to the wells, then 15 µL of NADPH stock solution (6 mM) was added. For the other time points, the reaction was initiated and timed by adding 15 µL of NADPH stock solution (6 mM) to the wells. The reaction was stopped by adding 200 µL of ACN containing IS to the corresponding plate wells at 5, 15, 30, and 45 min, respectively. After quenching, the plate was shaken at 600 rpm for 10 min and then centrifuged at 4000 rpm for 50 min. 80 µL of supernatant per well was pipetted to a 96-well sample plate containing 160 µL of pure water for UPLC/MS/MS analysis.

[2] = Cell membrane permeability (cell monolayer, A to B and B to A); assay type: in vitro ADME; conditions: 120 min, 37°C; for Papp A→B at 2 h, 10 µM: A to B
Method: Test compounds were diluted from 10 mM stock solution to a concentration of 10 µM in transport buffer (HBSS + BSA) and applied to the apical or basolateral side of the cell monolayer. The permeability of the test compounds was determined in both direction of from A to B and B to A directions after 120 min incubation at 37°C, 5% CO2 and 95% relative humidity. In addition, the efflux ratio of each compound was determined. The analyte and reference compounds were quantified by LC-MS/MS based on the analyte/IS peak area ratio.

[3] = In vivo brain permeability (plasma and cerebrospinal fluid PK); conditions: CD1 mice, PO 10 mg/kg; for AUC(0-inf) / Cmax / Tmax / half-life: mouse
Method: The test compound was dissolved in the vehicle to prepare a clear solution or a homogeneous suspension. Three mice (CD1 mice) per group were orally administered (PO) at 10 mg/kg. Plasma and cerebrospinal fluid were collected at 1 h, 4 h, and 8 h after oral administration and quantitatively analyzed by LC/MS/MS. Conclusion: At least some of the compounds of the present application have reached very high levels of Cmax and AUC in cerebrospinal fluid and have good in vivo brain permeability. […] Table 7 Plasma and cerebrospinal fluid PK of compound 25

sciatic nerve = test: Mouse sciatic nerve axotomy (SNA) model; assay type: in vivo; conditions: mice, Figure 2
Excerpt: Methods: Mice were anesthetized with isoflurane, and the skin of the right hind limb was shaved and sterilized with iodine. An incision was made between the knee and hip joints, and the gluteal muscle was carefully separated using a pair of sterile surgical scissors. The sciatic nerve was cut proximally to the thigh with a pair of sterile surgical scissors, and a 1-2 mm segment of the nerve was removed to prevent axonal regeneration into the distal stump. The gluteal muscle was then placed back to its original anatomical position, and the overlying skin was reattached with surgical staples or sutures.
To examine the denervation of the neuromuscular junction (NMJ), the tibialis anterior muscles were dissected from perfused animals and fixed overnight with 4% paraformaldehyde/PBS at 4°C. Immunohistochemical staining was subsequently performed with Neurofilament-L antibody and Synapsin-1 antibody as well as acetylcholine receptor (AchR) markers. Finally, imaging was performed by laser confocal microscope Zeiss LSM710.

[4] = Pharmacokinetic evaluation in mice; assay type: in vivo, CD1 mice; conditions: plasma
Method: The test compound was dissolved in the vehicle to prepare a clear solution or a homogeneous suspension. Three mice (CD1 mice) per group were administered 2 mg/kg via the tail vein and 10 mg/kg orally (PO). Blood was collected at 0.083 h, 0.25 h, 0.5 h, 1 h, 2 h, 4 h, 8 h, and 24 h after intravenous administration, and at 0.083 h, 0.25 h, 0.5 h, 1 h, 2 h, 4 h, 8 h and 24 h after oral administration. Plasma samples were centrifuged, and the supernatant was collected to prepare samples for quantitative analysis by LC/MS/MS. Conclusion: At least some of the compounds of the present application (e.g., compound 25) have excellent pharmacokinetic properties in mice (including but not limited to Cl (clearance rate), T1/2 (half-life), Cmax (peak concentration), AUC (area under the drug-time curve), F (bioavailability), etc.). Table 6 The mouse PK properties of compound 25

mouse primary neurons = test: Neuronal injury model based on mouse primary neurons (axotomy, TUJ1 staining); assay type: cell-based; conditions: 0.3 µM, compared with the control I-5; axotomy at DIV 10, Figure 1
Method: Methods: Neocortices were dissected from the brains of newborn mice at DIV 0 (Day In Vitro 0), digested with 0.05% (w/v) trypsin/EDTA, and incubated at 37°C for 10 min. Neuronal cells obtained after digestion were seeded in cell culture dishes preincubated with poly-D-lysine in Neurobasal/B-27 medium (Neurobasal medium supplemented with 1% (v/v) B-27, 2 mM glutamine, 100 U/ml penicillin, and […] streptomycin). Starting from DIV 3, a half of the medium was replaced with fresh Neurobasal/B-27 medium every two days. At DIV 10, the cultures were subjected to axotomy and compound administration. The cells were fixed with 4% paraformaldehyde the day after axotomy and subjected to cell immunofluorescence staining for TUJ1. Confocal imaging of axons was performed using a Zeiss LSM710 laser confocal microscope.

[5] = Kinetic solubility evaluation; assay type: physicochemical; conditions: pbs, pH 7.4, aqueous buffer
Method: 10 mM stock solution was prepared by dissolving the test compound in DMSO. 100 mM K2HPO4 solution was prepared by adding 8.71 g K2HPO4 to 500 mL deionized water. 100 mM KH2PO4 solution was prepared by adding 2.05 g KH2PO4 to 150 mL deionized water. 405 mL of 100 mM K2HPO4 and 95 mL of 100 mM KH2PO4 were mixed and adjusted to pH 7.4 with 100 mM K2HPO4/KH2PO4 solution.
16 µL of 10 mM compound stock solution was added to 784 µL of PBS buffer (n = 3) by 96 well plate, and the plate was sealed and shaken at 25°C, 1000 rpm for 1.5 h. After incubation, the solution was transferred to a filter plate. All samples were filtered. 5 µL of the filtrate was taken, added to 5 µL of DMSO and 490 µL acetonitrile aqueous solution containing internal standard (1:1) and mixed. Then the mixed solution was diluted with acetonitrile aqueous solution containing internal standard (1:1) according to the properties of the compound and its response in the mass spectrometer. The dilution factor was adjusted according to the solubility value and UPLC-MS/MS signal response.

O=C1C(Cc2ccc(Cl)c(F)c2)CCN1c1nc2ccc3cnccc3c2[nH]1 (single isomer, unassigned) [Cpd. 18]
IC50 (SARM1): < 150 nM

O=C1C(Cc2ccc(Cl)c(F)c2)CCN1c1nc2ccc3cnccc3c2[nH]1 (single isomer, unassigned) [Cpd. 19]
IC50 (SARM1): < 150 nM

O=C1C(Cc2ccc(Cl)cc2)CCN1c1nc2ccc3cnccc3c2[nH]1 (stereo not shown) [Cpd. 2]
IC50 (SARM1): < 150 nM

O=C1C(Cc2ccc(F)c(Cl)c2)CCN1c1nc2ccc3cnccc3c2[nH]1 (stereo not shown) [Cpd. 3]
IC50 (SARM1): 500 to 1000 nM

O=C1C(Cc2cc(F)c(Cl)c(F)c2)CCN1c1nc2ccc3cnccc3c2[nH]1 (stereo not shown) [Cpd. 4]
half-life [1]: 28.9 min
efflux ratio at 2 h, 10 µM [2]: 1.15
Papp A→B at 2 h, 10 µM [2]: 11 ×10⁻⁶ cm/s
IC50 (SARM1): < 150 nM

O=C1C(Cc2ccc(Cl)c(F)c2)CCN1c1nc2ccc3cnccc3c2[nH]1 (stereo not shown) [Cpd. 5]
IC50 (SARM1): < 150 nM

O=C1C(Cc2ccc(Cl)c(Cl)c2)CCN1c1nc2ccc3cnccc3c2[nH]1 (stereo not shown) [Cpd. 6]
IC50 (SARM1): 150 to 500 nM

O=C1C(Cc2cnc(Cl)c(F)c2)CCN1c1nc2ccc3cnccc3c2[nH]1 (stereo not shown) [Cpd. 7]
IC50 (SARM1): 150 to 500 nM

O=C(CCc1ccc(Cl)cc1)Nc1nc2ccc3cnccc3c2[nH]1 [Cpd. 8]
IC50 (SARM1): < 150 nM

O=C(CCc1ccc(Cl)c(F)c1)Nc1nc2ccc3cnccc3c2[nH]1 [Cpd. 9]
half-life [1]: 19.7 min
IC50 (SARM1): < 150 nM

O=C(CCc1cnc(Cl)c(F)c1)Nc1nc2ccc3cnccc3c2[nH]1 [Cpd. 10]
half-life [1]: 21.1 min
IC50 (SARM1): 150 to 500 nM

C=C(CCc1ccc(Cl)cc1)C(=O)Nc1nc2ccc3cnccc3c2[nH]1 [Cpd. 11]
IC50 (SARM1): > 1000 nM

O=C(CCc1ccc(Cl)cc1)Nc1[nH]nc2c1ccc1cnccc12 [Cpd. 12]
IC50 (SARM1): 500 to 1000 nM

O=C1C(Cc2cc(F)c(Cl)c(F)c2)CCCN1c1nc2ccc3cnccc3c2[nH]1 (stereo not shown) [Cpd. 14]
IC50 (SARM1): < 150 nM

O=C1C(Cc2ccc(Cl)c(F)c2)CCCN1c1nc2ccc3cnccc3c2[nH]1 (stereo not shown) [Cpd. 15]
IC50 (SARM1): < 150 nM

O=C1C(Cc2ccc(Cl)c(F)c2)CCN1c1nc2c(ccc3cnccc32)o1 (stereo not shown) [Cpd. 20]
IC50 (SARM1): < 150 nM

O=C1C(Cc2ccc(Cl)c(F)c2)CCCN1c1nc2c(ccc3cnccc32)o1 (stereo not shown) [Cpd. 21]
IC50 (SARM1): 150 to 500 nM

O=C(CCc1ccc(Cl)c(F)c1)Nc1nc2c(ccc3cnccc32)o1 [Cpd. 22]
IC50 (SARM1): 150 to 500 nM

O=C(CCc1ccc(Cl)c(F)c1)Nc1nc2c([nH]1)COc1cnccc1-2 [Cpd. 23]
half-life [1]: 37.4 min
IC50 (SARM1): < 150 nM

O=C1C(Cc2ccc(Cl)c(F)c2)CCN1c1nc2c([nH]1)COc1cnccc1-2 (stereo not shown) [Cpd. 24]
IC50 (SARM1): < 150 nM

O=C1C(Cc2ccc(Cl)c(F)c2)CCCN1c1nc2c([nH]1)COc1cnccc1-2 (stereo not shown) [Cpd. 25]
half-life [1]: 26.1 min
AUCbrain/AUCplasma [3]: 0.71
AUC(0-inf) ([3]; Cerebrospinal fluid PK): 6900 ng·h/mL
Cmax ([3]; Cerebrospinal fluid PK): 2200 ng/mL
Tmax ([3]; Cerebrospinal fluid PK): 60 min
half-life ([3]; Cerebrospinal fluid PK): 84.6 min
AUC(0-inf) ([3]; Plasma PK): 9700 ng·h/mL
Cmax ([3]; Plasma PK): 3090 ng/mL
Tmax ([3]; Plasma PK): 60 min
half-life ([3]; Plasma PK): 84 min
efflux ratio at 2 h, 10 µM [2]: 0.9
Papp A→B at 2 h, 10 µM [2]: 7.56 ×10⁻⁶ cm/s
protection of axons from injury-induced axonal degeneration (sciatic nerve): significantly protect axons from injury-induced axonal degeneration
AUC(0-inf) ([4]; mouse IV (2 mg/kg)): 2210 ng·h/mL
C0 ([4]; mouse IV (2 mg/kg)): 2110 ng/mL
clearance ([4]; mouse IV (2 mg/kg)): 15.1 mL/min/kg
half-life ([4]; mouse IV (2 mg/kg)): 79.8 min
Vd ([4]; mouse IV (2 mg/kg), read-out: Vss): 1.31 L/kg
AUC(0-inf) ([4]; mouse PO (10 mg/kg)): 9820 ng·h/mL
Cmax ([4]; mouse PO (10 mg/kg)): 3000 ng/mL
Tmax ([4]; mouse PO (10 mg/kg)): 25 min
half-life ([4]; mouse PO (10 mg/kg)): 110 min
bioavailability ([4]; mouse PO (10 mg/kg) vs IV (2 mg/kg)): 89%
neuron-protecting activity (axonal loss after axonal injury) (mouse primary neurons): stronger neuron-protecting activity
IC50 (SARM1): < 150 nM
solubility at […] [5]: > 50 µg/mL
